Results published in patent US11702442B2, “Cyclic dinucleotide compounds as sting agonists” (The Regents of the University of California, priority 2019, dated 2023).
Entries after “also recorded” stand apart in the source; their conditions may differ.

What was measured:
[1] = system: STING pathway; assay: Type-I IFN production in THP-1 cells detected with HEK-Blue IFN α/β reporter cells; assay type: cell-based, human; conditions: 5 μM CDN, 4 h incubation, compared with c-di-GMP
Procedure: THP-1 cells were seeded at a density of 100000 cells/well in a 96-well cell culture plate and differentiated with 25 nM of PMA for approximately 20 h prior to treatment with CDNs. Cells were transfected with 5 μM of CDNs in a permeabilization buffer containing 5 μg/mL of digitonin, then washed and incubated in RPMI medium with 2% FBS at 37° C. for 4 h. 50 μL of cell culture supernatant per well was transferred to 150 μL of HEK-Blue IFN α/β reporter cells seeded at 50000 cells/well in a 96-well cell culture plate and incubated at 37° C. overnight. The reporter cells were spun down the next day, and 50 μL of cell culture supernatant per well was transferred to a 96-well plate and added with 150 μL of QUANTI-Blue™ SEAP detection medium (InvivoGen). The samples were then incubated at 37° C. for 1 h 20 min before absorption was measured at 640 nm. The absorption signal of each sample was normalized to untreated samples. Two independent assays were performed in duplicate or triplicate. Error bars indicate SD.
To preliminarily determine whether the synthetic c-di-GMP analogues could activate the IFN response in eukaryotic cells, THP-1 cells were treated with 5 μM of c-di-GMP, c-GthGMP and c-di-thGMP.
Detecting type-I IFN production with reporter cells. […] The samples were then incubated at 37° C. for 80 min before absorption was measured at 640 nm with an EnSpire plate reader (PerkinElmer). […]

[2] = target: DncV (Vibrio cholerae serotype O1, UniProt Q9KVG7); conditions: pseudo-second order simulation, FL Model 2
DncV, sequence (Q9KVG7 whole entry): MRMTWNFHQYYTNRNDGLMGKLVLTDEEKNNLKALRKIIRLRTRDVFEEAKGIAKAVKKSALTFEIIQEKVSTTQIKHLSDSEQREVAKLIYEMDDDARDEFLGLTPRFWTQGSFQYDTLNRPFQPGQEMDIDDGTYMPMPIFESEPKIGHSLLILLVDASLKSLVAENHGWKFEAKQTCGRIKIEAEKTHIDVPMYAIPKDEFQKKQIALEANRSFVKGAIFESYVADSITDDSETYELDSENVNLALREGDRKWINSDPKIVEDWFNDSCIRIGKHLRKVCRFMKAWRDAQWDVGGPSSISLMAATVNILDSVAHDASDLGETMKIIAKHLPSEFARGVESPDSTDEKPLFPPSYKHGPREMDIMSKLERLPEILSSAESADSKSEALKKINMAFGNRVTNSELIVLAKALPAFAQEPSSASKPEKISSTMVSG
Procedure: The bacterial enzyme DncV was thus incubated with either GTP, ^thGTP, ^tzGTP or mixtures thereof under the same conditions as the HPLC-monitored reactions. Aliquots were treated with calf intestinal alkaline phosphatase (CIAP) at designated times, and emission spectra were taken after appropriate dilution.
Unlike integrated chromatographic analyses, which can separately account for all individual species present, the observed fluorescence signal reflects the sum of all emissive species. To facilitate quantitative analyses of fluorescence data, a conversion factor (a) was introduced to the simulation of the fluorescence-monitored reaction kinetics. This factor bridges the integrated fluorescent spectrum and the concentration of a given chromophore at a given set of conditions and can be calculated from the integrated emission spectrum (FLint) of a given chromophore with known concentration ([C]) using Equation (5). […] To compare the fluorescence- and HPLC-monitored reaction kinetics, Equation (6) was used to correlate the recorded fluorescence spectrum with the concentrations of different species in the reaction mixture. As a first attempt, the k values extracted from the HPLC analysis were used to fit the fluorescence data (referred to as FL Model 1). […]

SMILES | type-I IFN induction [1] | kapp (apparent kinetics rate constant) [2]
Nc1nc2c([C@@H]3O[C@@H]4COP(=O)(O)O[C@H]5[C@@H](O)[C@H](n6cnc7c(=O)[nH]c(N)nc76)O[C@@H]5COP(=O)(O)O[C@H]4[C@H]3O)scc2c(=O)[nH]1 [c-G^thGMP] | comparable efficiency to cdi-GMP; also recorded: comparable potency to c-di-GMP | –
Nc1nc2c([C@@H]3O[C@@H]4COP(=O)(O)O[C@H]5[C@@H](O)[C@H](c6scc7c(=O)[nH]c(N)nc67)O[C@@H]5COP(=O)(O)O[C@H]4[C@H]3O)scc2c(=O)[nH]1 [c-di-^thGMP] | no activity | 0.53 ± 0.05 M⁻¹ s⁻¹
Nc1nc2c([C@@H]3O[C@@H]4COP(=O)(O)O[C@H]5[C@@H](O)[C@H](c6snc7c(=O)[nH]c(N)nc67)O[C@@H]5COP(=O)(O)O[C@H]4[C@H]3O)snc2c(=O)[nH]1 [c-di-^tzGMP] | – | 1.57 ± 0.15 M⁻¹ s⁻¹
